Values quoted from earlier work in patent publication US20140005116A1, “KELOID TREATMENT” (ADE THERAPEUTICS INC., priority 2010, published 2014).
Peptide text beside a SMILES is read from it.

Details: heat sterilization and prolonged storage

Row | stability during sterilization and prolonged storage | SMILES
1 | sufficiently stable | NCC(=O)N[C@@H](CCC(N)=O)C(=O)O [Glycyl-glutamine] (H-Gly-Gln-OH)
2 | sufficiently stable | C[C@H](N)C(=O)N[C@@H](CCC(N)=O)C(=O)O [alanyl-glutamine, L-alanyl-L-glutamine] (H-Ala-Gln-OH)
